The supplement of paper PMC8671470
± gives the standard deviation of the averaged measurements.

Experiments:
Settings in all cases: 72 h
HL-60 [1] = experiment: cell viability (% survival relative to DMSO control); higher = less cytotoxic
How it was run: (§1)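 HL-60 cells grown in RPMI 1640 with 10% FBS were rescreened against the full library in 384-well plates, in duplicate, at five tenfold concentrations from 1 to 10,000 nM, alongside DMSO or 100 nM of one of three metabolic inhibitors for 72 h at 37 °C, 5% CO2. Reference wells contained DMSO or 10 μM proteasome inhibitor. Viability was read with CellTiter-Glo and normalised to these reference wells, and where reported, area under the curve was taken from four-parameter log-logistic fits in drc and PharmacoGx.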

HL-60 [2] = experiment: area under dose-response curve (viability, 1 nM-10 uM) (fraction (0-1)); higher = more sensitive
How it was run: as §1

[3] = test system: myeloid leukemia patient primary cells Pat.10; experiment: cell viability (% survival relative to DMSO control); higher = less cytotoxic
How it was run: (§2)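 Mononuclear cells from patients with AML or CML were thawed, purified on Ficoll and placed in RPMI 1640 with 10% FBS at 10,000 cells/well on 384-well plates. The plates came pre-printed with 70 compounds at five tenfold concentrations spanning 1–10,000 nM, in duplicate, and cells were exposed for 72 h. CellTiter-Glo gave viability, scaled between DMSO wells and wells with 10 μM proteasome inhibitor. Where reported, area under the curve was obtained from log-logistic fits with four parameters using the drc and PharmacoGx R packages.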

[4] = test system: myeloid leukemia patient primary cells Pat.15; experiment: as above
How it was run: as §2

[5] = test system: myeloid leukemia patient primary cells Pat.2; experiment: as above
How it was run: as §2

[6] = test system: myeloid leukemia patient primary cells Pat.11; experiment: as above
How it was run: as §2

[7] = test system: myeloid leukemia patient primary cells Pat.9; experiment: as above
How it was run: as §2

[8] = test system: myeloid leukemia patient primary cells Pat.6; experiment: as above
How it was run: as §2

[9] = test system: myeloid leukemia patient primary cells Pat.4; experiment: as above
How it was run: as §2

[10] = test system: myeloid leukemia patient primary cells Pat.8; experiment: as above
How it was run: as §2

[11] = test system: myeloid leukemia patient primary cells Pat.5; experiment: as above
How it was run: as §2

[12] = test system: myeloid leukemia patient primary cells Pat.12; experiment: as above
How it was run: as §2

[13] = test system: myeloid leukemia patient primary cells Pat.3; experiment: as above
How it was run: as §2

[14] = test system: myeloid leukemia patient primary cells Pat.13; experiment: as above
How it was run: as §2

[15] = test system: myeloid leukemia patient primary cells Pat.1; experiment: as above
How it was run: as §2

[16] = test system: myeloid leukemia patient primary cells Pat.14; experiment: as above
How it was run: as §2

[17] = test system: myeloid leukemia patient primary cells Pat.7; experiment: as above
How it was run: as §2

CCN(CC)C(=S)SSC(=S)N(CC)CC [Disulfiram]
cell viability [%], HL-60 [1]
Settings | 0.001 µM | 0.01 µM | 0.1 µM | 1 µM | 10 µM
co-treatment: AZD3965 100 nM | 104 ± 2.5 | 101 ± 6 | 98.7 ± 8.1 | 96.7 ± 4.4 | 101 ± 1.1
co-treatment: DMSO vehicle | 100.9 ± 0.6 | 100.4 ± 0.73 | 105 ± 3.3 | 94 ± 5.5 | 98.66 ± 0.82
co-treatment: GSK2194069 100 nM | 100 ± 2.3 | 95.7 ± 15 | 102 ± 7 | 93.1 ± 2.8 | 102 ± 2.9
co-treatment: pictilisib 100 nM | 105.2 ± 0.96 | 86.4 ± 37 | 107 ± 2.5 | 71.25 ± 0.41 | 102 ± 15

Settings | area under dose-response curve, co-treatment: AZD3965 100 nM | area under dose-response curve, co-treatment: DMSO vehicle | area under dose-response curve, co-treatment: GSK2194069 100 nM | area under dose-response curve, co-treatment: pictilisib 100 nM | cell viability, 1 nM [%] | cell viability, 10 nM [%] | cell viability, 100 nM [%] | cell viability, 1000 nM [%] | cell viability, 10000 nM [%]
HL-60 [2] | < 0.0301 | < 0.0301 | < 0.0301 | < 0.0301 | – | – | – | – | –
[3] | – | – | – | – | 85 | 72.2 | 47.8 | 56.6 | > 100
[4] | – | – | – | – | 96.8 | 87.7 | 9.1 | 1.3 | 0.0644
[5] | – | – | – | – | 95.6 | 93.9 | 39.1 | 0.978 | 3.7
[6] | – | – | – | – | 99.9 | 99.2 | 98.7 | 2.1 | 3.25
[7] | – | – | – | – | 71.8 | > 100 | 86.3 | 33.6 | 20.9
[8] | – | – | – | – | 99.6 | 94.6 | 80.5 | 2.26 | 4.13
[9] | – | – | – | – | 94.9 | 90.7 | 96.1 | 0.934 | 6.79
[10] | – | – | – | – | 61.6 | 76.7 | 39.6 | 0.473 | 1.14
[11] | – | – | – | – | 76.6 | 76.8 | 74.5 | 26.1 | 5.84
[12] | – | – | – | – | 98 | 95.2 | 54 | 3.19 | < 0
[13] | – | – | – | – | > 100 | 99.2 | 99.7 | 84.6 | 1.56
[14] | – | – | – | – | 94.8 | 91 | 79.5 | < 0 | 4.12
[15] | – | – | – | – | 95 | 82.2 | 79.8 | 1.11 | 0.116
[16] | – | – | – | – | 89.1 | 93.9 | 87.8 | 60.5 | 21.4
[17] | – | – | – | – | 83.4 | 86.8 | 61.1 | 71.7 | < 0

c1cc(-c2cnn3cc(-c4ccc(OCCN5CCCCC5)cc4)cnc23)ccn1 [Dorsomorphin]
cell viability [%], HL-60 [1]
Settings | 0.001 µM | 0.01 µM | 0.1 µM | 1 µM | 10 µM
co-treatment: AZD3965 100 nM | 101 ± 4.1 | 101 ± 4.7 | 99.7 ± 1.5 | 99.9 ± 0.26 | 56.2 ± 9.3
co-treatment: DMSO vehicle | 99.8 ± 1.8 | 102 ± 3.1 | 99.9 ± 1.4 | 95.21 ± 0.44 | 63.4 ± 7.4
co-treatment: GSK2194069 100 nM | 108 ± 14 | 102 ± 2.1 | 104 ± 1.1 | 105 ± 5.1 | 63.4 ± 0.95
co-treatment: pictilisib 100 nM | 93.5 ± 8.3 | 99.7 ± 4.2 | 94.8 ± 11 | 82.3 ± 2.3 | 34 ± 3.1

Settings | area under dose-response curve, co-treatment: AZD3965 100 nM | area under dose-response curve, co-treatment: DMSO vehicle | area under dose-response curve, co-treatment: GSK2194069 100 nM | area under dose-response curve, co-treatment: pictilisib 100 nM | cell viability, 1 nM [%] | cell viability, 10 nM [%] | cell viability, 100 nM [%] | cell viability, 1000 nM [%] | cell viability, 10000 nM [%]
HL-60 [2] | 0.0329 | 0.0501 | < 0.0301 | 0.112 | – | – | – | – | –
[3] | – | – | – | – | 17.6 | 76.4 | 61.4 | 27.6 | 38.4
[4] | – | – | – | – | 88.3 | 90.6 | 95.6 | 92.5 | 24.9
[5] | – | – | – | – | 95.8 | 99.8 | 92.5 | > 100 | 59.4
[6] | – | – | – | – | 95.2 | > 100 | 90.4 | 79.8 | 43.8
[7] | – | – | – | – | 41.6 | > 100 | 11.5 | 41.3 | 18.7
[8] | – | – | – | – | 84.6 | > 100 | 73.2 | 83.4 | 72.5
[9] | – | – | – | – | 86.7 | 91.5 | 90.1 | 56.8 | 35.9
[10] | – | – | – | – | 77.5 | 99 | 92.6 | 81.6 | 68.6
[11] | – | – | – | – | 3.45 | 81.3 | 5.46 | 1.33 | 10.2
[12] | – | – | – | – | 98.5 | 97.1 | 98.5 | 92 | 91.6
[13] | – | – | – | – | 64.7 | 99.1 | 67.9 | 86.3 | 34.1
[14] | – | – | – | – | 88.2 | 94.5 | 64.7 | 50.7 | 48.6
[15] | – | – | – | – | 76.7 | 93.2 | 78.1 | 65.8 | 27.8
[16] | – | – | – | – | 48.1 | 100 | 53 | 84.5 | 60.8
[17] | – | – | – | – | 25.4 | 95.4 | 65 | 89.5 | 30.9
